This is an account of results in patent US20110195030A1, “NANOPARTICLE COMPOSITIONS COMPRISING LIQUID OIL CORES” (The University of North Carolina at Chapel Hill, priority 2008, published 2011).

In brackets after ≈: the same amount, converted by molar mass. Some results are limits rather than exact numbers.

As usually defined, the solubility is the dissolved amount per volume that the medium holds. As usually defined, the aqueous solubility is the concentration that dissolves in the medium under given conditions.

Data set [1] is described as follows: In-vitro release of paclitaxel by dialysis method. The class given is physicochemical. To be noted: 37° C., PBS with 0.1% Tween 80. As for the experimental part: PX release studies (n=4) were completed at 37° C. by the dialysis method using PBS with 0.1% Tween 80 as release medium. Before release studies, the solubility of PX in release medium was measured. Briefly, extra amounts of paclitaxel were added into 2 mL of release medium until saturation was attained. After centrifuge, the concentration of PX in the supernatant was determined by HPLC as described above. For release studies, one milliliter (1 mL) of PX G78 NPs was purified with a Microcon Y-100 and re-suspended into 1 mL D.I. water. The concentration of PX in re-suspended PX G78 NPs was measured by HPLC as described above. Eight hundred microliters of purified PX G78 NPs, PX BTM NPs and reconstituted lyo BTM NPs were placed into a regenerated cellulose dialysis membrane (MWCO 8000 Da) submerged in 40 mL PBS with 0.1% Tween 80, respectively, and then shaken in a water bath at a speed of 150 rpm at 37° C. Free PX also was used as a control. At predetermined times, 200 μL aliquots were taken from outside of the dialysis membrane, and replaced with 200 μL fresh media. PX was measured by HPLC as described above. Mass balance was confirmed by measuring PX concentration inside the dialysis membranes after 72 h. In addition, the particle sizes of PX NPs inside the dialysis membranes were measured when release studies were terminated (at 72 h).

Data set [2] in a line: Solubility of paclitaxel. To be noted: PBS with 0.1% Tween 80 (release medium), aqueous with cosolvent or surfactant or cyclodextrin, thermodynamic from solid; PBS with 0.1% Tween 80, room temperature, mean ± SD, n = 3. The data set is classed as physicochemical.
For data set [3] the following is noted: reported in literature; cited from earlier work.

As for `CC(=O)O[C@H]1C(=O)[C@@]2(C)[C@H]([C@H](OC(=O)c3ccccc3)[C@]3(O)C[C@H](OC(=O)[C@H](O)[C@@H](NC(=O)c4ccccc4)c4ccccc4)C(C)=C1C3(C)C)[C@]1(OC(C)=O)CO[C@@H]1C[C@@H]2O` [Paclitaxel], the “time to complete release” value in data set [1] is on record as not above 4 h. This compound also showed a solubility in data set [2] of 10.8 ± 0.3 µg/mL (≈ 12.6 µM). For the same compound, the aqueous solubility in data set [3] was 0.7 to 30 µg/mL.
